From patent publication US20230097883A1, “ERGOTHIONEINE PET COMPOUNDS AND METHODS OF USE THEREOF” (VANDERBILT UNIVERSITY, priority 2021, published 2023)
Entries after “also recorded” stand apart in the source; their conditions may differ.

Key:
HeLa cells = assay: DCFH-DA ROS scavenging assay in HeLa cells; assay type: cell-based
Description: We used a commercially available DCFH-DA (2′,7′-dichlorodihydrofluorescein diacetate) probe to assess the ROS scavenging power of ERGO in HeLa and neuroblastoma SH-SY5Y cells. Upon penetrating the cytoplasm, DCFH-DA is deacetylated by endogenous esterases to a non-fluorescent intermediate, followed by oxidation by free radicals. This generates a continuous and extended conjugation system, resulting in the production of highly fluorescent DCF (2′ 7′-dichlorofluorescein). In an aqueous condition, DCF has a maximal excitation and emission of 495 nm and 529 nm, respectively. Well-adhered HeLa or SH-SY5Y cells previously incubated with DCFH-DA were exposed to a commercial ROS initializer and ERGO concentrations ranging from 0-100 mM. […] Each point in the assay was measured in pentaplicate, p<0.0001.
On day 1, HeLa cells or SH-SY5Y cells were seeded into a 96-well plate with a density of 10,000 cells/mL. […] Immediately afterwards, fluorescence measurement began using a microplate reader (Biotek Industries, Agilent Technologies, Winooski, Vt., USA) with an excitation and emission wavelength of 485 nm and 528 nm, respectively. Each ERGO concentration was measured in pentaplicate.

Abeta = assay: [11C]PIB PET imaging of Abeta levels after ERGO treatment; assay type: in vivo, mouse
Protocol: To address our primary question whether longitudinal consumption of ERGO as a potent antioxidant benefit the brain, three cohorts of animals (n=12 non-treated WT control, n=12 non-treated 5XFAD, and n=18 ERGO-treated 5XFAD) were used (FIG. 3.2A). Starting at the age of 8 weeks, the animals were treated with high doses of ERGO solution (25-50 mg/Kg) formulated in double distilled (dd) water via oral gavage three times a week over the course of eight weeks. To reduce bias in the behavioral experiments with regard to the potential stress during gavage treatment, non-treated animals underwent the identical gavage process with the vehicle, water, only. The efficacy of the therapy was evaluated by behavioral testing, followed by three different non-invasive PET imaging sessions to assess biomarkers related to AD pathology. […]
Non-invasive, in vivo, and robust assessment of Abeta levels in the brains of treated and non-treated 5XFAD mice were performed using the [^11C]PIB PET probe, the chemical structure of which has been described elsewhere. […] We co-registered the PET/CT image to an MRI template for quantitative PET analysis of regional uptake in the brain. […]

oxidative stress = assay: [11C]ERGO PET imaging of oxidative stress after ERGO treatment; assay type: in vivo, mouse; conditions: ERGO-treated versus non-treated 5XFAD mice, 20-min dynamic scan after IV injection
Protocol: To address our primary question whether longitudinal consumption of ERGO as a potent antioxidant benefit the brain, three cohorts of animals (n=12 non-treated WT control, n=12 non-treated 5XFAD, and n=18 ERGO-treated 5XFAD) were used (FIG. 3.2A). Starting at the age of 8 weeks, the animals were treated with high doses of ERGO solution (25-50 mg/Kg) formulated in double distilled (dd) water via oral gavage three times a week over the course of eight weeks. To reduce bias in the behavioral experiments with regard to the potential stress during gavage treatment, non-treated animals underwent the identical gavage process with the vehicle, water, only. The efficacy of the therapy was evaluated by behavioral testing, followed by three different non-invasive PET imaging sessions to assess biomarkers related to AD pathology. In addition to assessing Abeta levels and glucose metabolism using the [^11C]PIB and [^18F]FDG probes, respectively; we also tested for the first time whether oxidative stress could be used as an indicator of response to therapy using the [^11C]ERGO PET radioligand. Finally, animals were euthanized, and the brains were collected for immunohistochemical analysis.
Thus, in this study, [^11C]ERGO PET radioligand was used to assess the fluctuation in oxidative stress with respect to ERGO therapy. […]

GFAP-positive astrocytes = assay: GFAP immunohistochemistry of brain sections after ERGO treatment; assay type: in vivo, mouse; conditions: ERGO-treated versus non-treated 5XFAD mice
Protocol: In this study, after the PET imaging, animals (non-treated 5XFAD (n=3) and ERGO-treated 5XFAD mice (n=5)) were perfused, and the brain sections were stained with antibodies against GFAP and IBA1 for neuroinflammatory markers astrocytes and microglia, respectively.
Brains embedded in OCT were cut into sagittal sections (10 μm) using a Tissue-Tek cryostat and mounted onto charged glass slides. Prior to staining, slides were washed with PBS (10 min); then, they were treated with blocking buffer (5% normal goat serum, 0.2% Triton X-100, 0.5% bovine albumin in PBS) for 1 h at room temperature. The treated sections were then incubated overnight at 4° C. with primary anti-GFAP antibody (1:100 dilution, Biolegend San Diego, Calif., USA). Slides were washed with PBS (3×) for 10 min each, the sections were subsequently incubated with secondary antibody goat anti-mouse Alexa Fluor 488 (1:200 dilution, Thermo Fisher Scientific, Carlsbad, Calif., USA) for 30 min at room temperature. The sections were then washed with PBS twice for 10 min and once for 30 min, and coverslipped with an antifade mounting medium (Vector Laboratories, Burlingame, Calif.) before observation under a fluorescence microscope.
Quantitative analysis of the PET imaging and IHC data was performed using imageJ software. […]

[1] = Ex-vivo cut-and-count whole-body biodistribution of I.V.-injected [11C]ERGO in WT mice; set-up: species or system mouse; conditions: pharmacokinetic study

| Compound | DCF fluorescence signal (ROS) (HeLa cells; ERGO 100 mM) | DCF fluorescence signal (ROS) (HeLa cells; ERGO starting from 5 mM) | [11C]PIB PET signal in brain (Abeta; ERGO-treated 5XFAD, 4-month-old, n=7, ~15 MBq [11C]PIB) | [11C]PIB % ID/g higher in non-treated 5XFAD compared to treated counterparts, every brain subregion (Abeta; non-treated n=5 versus ERGO-treated n=7 5XFAD mice) | [11C]ERGO PET signal pertaining to oxidative stress in the brain (oxidative stress) | reduction of GFAP-positive astrocytes in the hippocampus (GFAP-positive astrocytes) [%] | time after injection at which the concentration in the serum started to decrease [1] [min] |
| --- | --- | --- | --- | --- | --- | --- | --- |
| C[N+](C)(C)[C@@H](Cc1c[nH]c(=S)[nH]1)C(=O)[O-] [ERGO, L-ergothioneine] | nearly negligible; also recorded: quenches the fluorescence totally | attenuates the fluorescence significantly | very weak, and resembled the background signal found in WT mice | 30-50% | very modest reduction in PET signal | ~50 | – |
| C[N+](C)([11CH3])[C@@H](Cc1c[nH]c(=S)[nH]1)C(=O)[O-] [[^11C]ERGO] | – | – | – | – | – | – | 10 |
